Data: patent US12569875B2, “Film formation method” (FLOSFIA INC., priority 2023, dated 2026)

Columns and labels:
[1] = Preparation of an aqueous iridium complex solution (water solubility); format: physicochemical; settings: aqueous solution at iridium concentration 0.01 mol/L could not be prepared
[2] = Thermogravimetric-differential thermal analysis (TG-DTA) of iridium complexes; format: physicochemical
From the text: The iridium complexes used in Examples and Comparative Examples described above were subjected to a thermogravimetric-differential thermal analysis (TG-DTA) under an oxygen atmosphere and a nitrogen atmosphere respectively, to examine decomposition properties of the complexes. […] As the iridium complex, the iridium complex represented be the above formula (3) and the iridium complex represented by the above formula (5) were used for Examples and Comparative Examples respectively.

## iridium acetylacetonato [formula (5)]
[1]
  solubility in water: insoluble in water
[2]; TG-DTA, 400 to 600° C., FIG. 3
  mass loss at 400 to 600° C.: little mass loss
[2]; at 400° C., temperature increase rate 20° C./min, FIG. 2 / FIG. 3
  mass loss ratio: about 70%
